Calls of active or inactive are those of the source. The rule behind the calls is not given here.
Key:
[1] = target: Keap1/Nrf2 (Homo sapiens) (UniProt Q16236+Q14145); experiment: Binding affinity to human Keap1-Nrf2 protein-protein interaction assessed as dissociation constant (Kd2) incubated for 60 mins by fluorescent polarization assay
Peritoneal macrophage [2] = experiment: Antiinflammatory activity in mouse peritoneal macrophages assessed as fold reduction in LPS-induced TNFalpha level at 10 uM incubated for 4 hrs by ELISA method; type: functional
[3] = Cytotoxicity against mouse peritoneal macrophages assessed as reduction in cell viability incubated for 24 hrs by Cell titer-blue assay; type: toxicity, cell-based, Peritoneal macrophage
[4] = Aqueous solubility of the compound in PBS at pH 2 at 2 mg incubated for 24 hrs by HPLC-UV analysis; type: physicochemical
[5] = Aqueous solubility of the compound in PBS at pH 7.4 at 2 mg incubated for 24 hrs by HPLC-UV analysis; type: physicochemical
[6] = Aqueous solubility of the compound in PBS at pH 7 at 2 mg incubated for 24 hrs by HPLC-UV analysis; type: physicochemical
Peritoneal macrophage [7] = experiment: Antiinflammatory activity in mouse peritoneal macrophages assessed as reduction in LPS-induced IL6 level at 10 uM incubated for 4 hrs by ELISA method; type: functional, cell-based

Sequence of Keap1/Nrf2 (Homo sapiens) (Q14145 whole entry, looked up): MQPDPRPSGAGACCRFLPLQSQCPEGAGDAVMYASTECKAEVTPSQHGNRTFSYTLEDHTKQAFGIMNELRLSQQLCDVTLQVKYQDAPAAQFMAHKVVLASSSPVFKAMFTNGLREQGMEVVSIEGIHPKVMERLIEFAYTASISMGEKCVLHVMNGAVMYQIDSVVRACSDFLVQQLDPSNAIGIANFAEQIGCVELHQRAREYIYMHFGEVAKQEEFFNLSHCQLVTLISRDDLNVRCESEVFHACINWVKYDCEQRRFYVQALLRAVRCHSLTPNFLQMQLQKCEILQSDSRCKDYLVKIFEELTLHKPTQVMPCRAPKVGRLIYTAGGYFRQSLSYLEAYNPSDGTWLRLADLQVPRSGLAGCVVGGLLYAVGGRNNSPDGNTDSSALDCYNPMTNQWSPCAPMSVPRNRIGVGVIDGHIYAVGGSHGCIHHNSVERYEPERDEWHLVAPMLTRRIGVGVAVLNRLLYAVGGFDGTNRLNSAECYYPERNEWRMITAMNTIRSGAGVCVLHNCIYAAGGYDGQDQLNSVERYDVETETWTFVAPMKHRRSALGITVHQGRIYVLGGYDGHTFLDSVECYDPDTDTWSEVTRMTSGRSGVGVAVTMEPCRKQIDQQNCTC
Sequence of Keap1/Nrf2 (Homo sapiens) (Q16236 whole entry, looked up): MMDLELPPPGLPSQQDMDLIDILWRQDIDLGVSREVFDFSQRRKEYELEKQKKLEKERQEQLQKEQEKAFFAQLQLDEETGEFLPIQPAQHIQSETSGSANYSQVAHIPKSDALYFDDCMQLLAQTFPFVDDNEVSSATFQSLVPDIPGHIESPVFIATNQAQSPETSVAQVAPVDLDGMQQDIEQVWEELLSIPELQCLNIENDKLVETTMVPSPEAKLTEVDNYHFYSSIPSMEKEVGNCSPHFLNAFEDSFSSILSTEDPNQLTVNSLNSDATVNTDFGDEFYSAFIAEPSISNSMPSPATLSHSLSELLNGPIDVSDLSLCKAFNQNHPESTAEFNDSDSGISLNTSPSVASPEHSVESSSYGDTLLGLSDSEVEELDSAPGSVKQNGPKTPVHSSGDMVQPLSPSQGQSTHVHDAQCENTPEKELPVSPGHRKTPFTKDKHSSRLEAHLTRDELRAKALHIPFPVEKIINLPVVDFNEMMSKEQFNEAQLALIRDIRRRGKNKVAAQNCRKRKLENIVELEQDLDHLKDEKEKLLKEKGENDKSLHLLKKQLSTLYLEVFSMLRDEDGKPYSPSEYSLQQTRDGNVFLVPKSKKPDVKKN

K [1]	solubility at 24 h [4]	solubility at 24 h [5]	solubility at 24 h [6]	Structure (SMILES)	fold change (FC) (Peritoneal macrophage [2])	CC50 at 24 h [3]	Activity (Peritoneal macrophage [7])
590 nM	–	–	–	CCC[C@@H](N)C(=O)Nc1ccc(S(=O)(=O)N(CC(N)=O)c2ccc(N(CC(N)=O)S(=O)(=O)c3ccc(OC)cc3)c3ccccc23)cc1	<=0.5	> 100 µM	–
810 nM	–	–	–	COc1ccc(S(=O)(=O)N(CC(N)=O)c2ccc(N(CC(N)=O)S(=O)(=O)c3ccc(NC(=O)[C@H](N)C(C)C)cc3)c3ccccc23)cc1	<=0.5	> 100 µM	–
–	1170 µg/mL	283 µg/mL	484 µg/mL	COc1ccc(S(=O)(=O)N(CC(N)=O)c2ccc(N(CC(N)=O)S(=O)(=O)c3ccc(NC(=O)[C@H]4CCN4)cc3)c3ccccc23)cc1.Cl	–	–	–
240 nM	–	–	–	COc1ccc(S(=O)(=O)N(CC(N)=O)c2ccc(N(CC(N)=O)S(=O)(=O)c3ccc(NC(=O)[C@@H]4CCNC4)cc3)c3ccccc23)cc1	<=0.5	> 100 µM	Active
820 nM	–	–	–	COc1ccc(S(=O)(=O)N(CC(N)=O)c2ccc(N(CC(N)=O)S(=O)(=O)c3ccc(NC(=O)[C@@H](N)Cc4ccccc4)cc3)c3ccccc23)cc1	<=0.5	> 100 µM	–
440 nM	–	–	–	COc1ccc(S(=O)(=O)N(CC(N)=O)c2ccc(N(CC(N)=O)S(=O)(=O)c3ccc(NC(=O)[C@@H](N)CSC)cc3)c3ccccc23)cc1	<=0.5	> 100 µM	–
260 nM	–	–	–	COc1ccc(S(=O)(=O)N(CC(N)=O)c2ccc(N(CC(N)=O)S(=O)(=O)c3ccc(NC(=O)C4CCN4)cc3)c3ccccc23)cc1 (centres undefined)	<=0.5	> 100 µM	Active
240 nM	–	–	–	COc1ccc(S(=O)(=O)N(CC(N)=O)c2ccc(N(CC(N)=O)S(=O)(=O)c3ccc(NC(=O)[C@H](C)N)cc3)c3ccccc23)cc1	<=0.5	> 100 µM	Active
280 nM	–	–	–	COC[C@@H](N)C(=O)Nc1ccc(S(=O)(=O)N(CC(N)=O)c2ccc(N(CC(N)=O)S(=O)(=O)c3ccc(OC)cc3)c3ccccc23)cc1	<=0.5	> 100 µM	–
230 nM	–	–	–	COc1ccc(S(=O)(=O)N(CC(N)=O)c2ccc(N(CC(N)=O)S(=O)(=O)c3ccc(NC(=O)[C@@H](C)N)cc3)c3ccccc23)cc1	<=0.5	> 100 µM	Active
–	145 µg/mL	65.6 µg/mL	60.6 µg/mL	COc1ccc(S(=O)(=O)N(CC(N)=O)c2ccc(N(CC(N)=O)S(=O)(=O)c3ccc(NC(=O)[C@H]4CCN4)cc3)c3ccccc23)cc1.O=C(O)CCC(=O)O	–	–	–
–	423 µg/mL	275 µg/mL	292 µg/mL	COc1ccc(S(=O)(=O)N(CC(N)=O)c2ccc(N(CC(N)=O)S(=O)(=O)c3ccc(NC(=O)[C@H]4CCN4)cc3)c3ccccc23)cc1.O=C(O)C(F)(F)F	–	–	–
440 nM	–	–	–	COc1ccc(S(=O)(=O)N(CC(N)=O)c2ccc(N(CC(N)=O)S(=O)(=O)c3ccc(NC(=O)CCN)cc3)c3ccccc23)cc1	<=0.5	> 100 µM	–
650 nM	–	–	–	COc1ccc(S(=O)(=O)N(CC(N)=O)c2ccc(N(CC(N)=O)S(=O)(=O)c3ccc(NC(=O)[C@@H]4CCN4)cc3)c3ccccc23)cc1	<=0.5	> 100 µM	–
400 nM	–	–	–	COc1ccc(S(=O)(=O)N(CC(N)=O)c2ccc(N(CC(N)=O)S(=O)(=O)c3ccc(NC(=O)[C@H]4CCCNC4)cc3)c3ccccc23)cc1	<=0.5	> 100 µM	–
270 nM	–	–	–	COc1ccc(S(=O)(=O)N(CC(N)=O)c2ccc(N(CC(N)=O)S(=O)(=O)c3ccc(NC(=O)CCCCN)cc3)c3ccccc23)cc1	<=0.5	> 100 µM	–
550 nM	–	–	–	COCC(=O)Nc1ccc(S(=O)(=O)N(CC(N)=O)c2ccc(N(CC(N)=O)S(=O)(=O)c3ccc(OC)cc3)c3ccccc23)cc1	<=0.5	> 100 µM	–

K [1]	solubility at 24 h [4]	solubility at 24 h [5]	solubility at 24 h [6]	Structure (SMILES)	fold change (FC) (Peritoneal macrophage [2])	CC50 at 24 h [3]	Activity (Peritoneal macrophage [7])
–	311 µg/mL	160 µg/mL	162 µg/mL	CC(=O)O.COc1ccc(S(=O)(=O)N(CC(N)=O)c2ccc(N(CC(N)=O)S(=O)(=O)c3ccc(NC(=O)[C@H]4CCN4)cc3)c3ccccc23)cc1	–	–	–
400 nM	–	–	–	COc1ccc(S(=O)(=O)N(CC(N)=O)c2ccc(N(CC(N)=O)S(=O)(=O)c3ccc(NC(=O)[C@@H](N)C(C)C)cc3)c3ccccc23)cc1	<=0.5	> 100 µM	–
270 nM	–	–	–	COc1ccc(S(=O)(=O)N(CC(N)=O)c2ccc(N(CC(N)=O)S(=O)(=O)c3ccc(NC(=O)[C@@H]4CCCN4)cc3)c3ccccc23)cc1	<=0.5	> 100 µM	Active
300 nM	–	–	–	COc1ccc(S(=O)(=O)N(CC(N)=O)c2ccc(N(CC(N)=O)S(=O)(=O)c3ccc(NC(=O)[C@H]4CCCN4)cc3)c3ccccc23)cc1	<=0.5	> 100 µM	Active
530 nM	–	–	–	CC[C@H](N)C(=O)Nc1ccc(S(=O)(=O)N(CC(N)=O)c2ccc(N(CC(N)=O)S(=O)(=O)c3ccc(OC)cc3)c3ccccc23)cc1	<=0.5	> 100 µM	–
–	46.3 µg/mL	34.7 µg/mL	32.3 µg/mL	COc1ccc(S(=O)(=O)N(CC(N)=O)c2ccc(N(CC(N)=O)S(=O)(=O)c3ccc(NC(=O)[C@H]4CCN4)cc3)c3ccccc23)cc1.O=C(O)/C=C\C(=O)O	–	–	–
–	672 µg/mL	137 µg/mL	256 µg/mL	Br.COc1ccc(S(=O)(=O)N(CC(N)=O)c2ccc(N(CC(N)=O)S(=O)(=O)c3ccc(NC(=O)[C@H]4CCN4)cc3)c3ccccc23)cc1	–	–	–
320 nM	–	–	–	CC[C@@H](N)C(=O)Nc1ccc(S(=O)(=O)N(CC(N)=O)c2ccc(N(CC(N)=O)S(=O)(=O)c3ccc(OC)cc3)c3ccccc23)cc1	<=0.5	> 100 µM	Active
270 nM	–	–	–	COc1ccc(S(=O)(=O)N(CC(N)=O)c2ccc(N(CC(N)=O)S(=O)(=O)c3ccc(NC(=O)[C@@H]4CCCNC4)cc3)c3ccccc23)cc1	<=0.5	> 100 µM	Active
430 nM	–	–	–	COc1ccc(S(=O)(=O)N(CC(N)=O)c2ccc(N(CC(N)=O)S(=O)(=O)c3ccc(NC(=O)C4CCCNC4)cc3)c3ccccc23)cc1 (centres undefined)	<=0.5	> 100 µM	–
280 nM	–	–	–	COc1ccc(S(=O)(=O)N(CC(N)=O)c2ccc(N(CC(N)=O)S(=O)(=O)c3ccc(NC(=O)C4CCNC4)cc3)c3ccccc23)cc1 (centres undefined)	<=0.5	> 100 µM	Active
250 nM	–	–	–	CNCC(=O)Nc1ccc(S(=O)(=O)N(CC(N)=O)c2ccc(N(CC(N)=O)S(=O)(=O)c3ccc(OC)cc3)c3ccccc23)cc1	<=0.5	> 100 µM	Active
330 nM	–	–	–	COC[C@H](N)C(=O)Nc1ccc(S(=O)(=O)N(CC(N)=O)c2ccc(N(CC(N)=O)S(=O)(=O)c3ccc(OC)cc3)c3ccccc23)cc1	<=0.5	> 100 µM	Active
250 nM	–	–	–	COc1ccc(S(=O)(=O)N(CC(N)=O)c2ccc(N(CC(N)=O)S(=O)(=O)c3ccc(NC(=O)[C@H]4CCNC4)cc3)c3ccccc23)cc1	<=0.5	> 100 µM	Active
250 nM	–	–	–	COc1ccc(S(=O)(=O)N(CC(N)=O)c2ccc(N(CC(N)=O)S(=O)(=O)c3ccc(NC(=O)CN)cc3)c3ccccc23)cc1	<=0.5	> 100 µM	–
1170 nM	–	–	–	COc1ccc(S(=O)(=O)N(CC(N)=O)c2ccc(N(CC(N)=O)S(=O)(=O)c3ccc(NC(=O)[C@H](N)Cc4ccccc4)cc3)c3ccccc23)cc1	<=0.5	> 100 µM	–
630 nM	–	–	–	COc1ccc(S(=O)(=O)N(CC(N)=O)c2ccc(N(CC(N)=O)S(=O)(=O)c3ccc(NC(=O)CCCN)cc3)c3ccccc23)cc1	<=0.5	> 100 µM	–

— ChEMBL document CHEMBL5338809, “Fragment-Based Discovery of Azocyclic Alkyl Naphthalenesulfonamides as Keap1-Nrf2 Inhibitors for Acute Lung Injury Treatment” (J Med Chem, 2023)
